Data: patent publication US11161856B2 (H. Lundbeck A/S, priority 2017, dated 2021)

Columns and labels:
Format in all cases: biochemical
ABHD6 = target: T1, ABHD6 (Mus musculus, UniProt Q8R2Y0); assay: In vitro competitive activity-based protein profiling, mouse brain proteome (ABHD6); details: mouse brain proteome; concentration not given (μM)
T1 construct: Brain; from tissue; host or cells: mouse brain proteome
T1 sequence (Q8R2Y0 1-336): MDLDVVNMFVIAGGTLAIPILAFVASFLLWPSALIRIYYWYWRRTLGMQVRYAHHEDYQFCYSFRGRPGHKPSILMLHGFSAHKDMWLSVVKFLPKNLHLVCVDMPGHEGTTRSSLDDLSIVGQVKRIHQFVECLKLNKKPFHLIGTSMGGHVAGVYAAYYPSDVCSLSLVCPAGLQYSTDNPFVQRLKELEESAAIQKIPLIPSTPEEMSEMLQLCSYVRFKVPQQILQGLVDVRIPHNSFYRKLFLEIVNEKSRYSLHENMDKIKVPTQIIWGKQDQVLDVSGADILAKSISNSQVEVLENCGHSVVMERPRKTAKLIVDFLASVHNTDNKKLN
Procedure: [The source words this procedure for another target and reports this target under the same test.] In Vitro Competitive Activity-Based Protein Profiling.
Proteomes (human prefrontal cortex or cell membrane fractions) (50 μL, 1.0 mg/mL total protein concentration) were preincubated with varying concentrations of inhibitors at 37° C. After 30 min, FP-Rh or HT-01 (1.0 μL, 50 μM in DMSO) was added and the mixture was incubated for another 30 min at room temperature. Reactions were quenched with SDS loading buffer (15 μL-4×) and run on SDS-PAGE.

MGLL = target: T2, MGLL (Mus musculus, UniProt O35678); assay: In vitro competitive activity-based protein profiling, mouse brain proteome (MGLL); details: concentration not given (μM)
T2 construct: Brain; from tissue; host or cells: mouse brain proteome
T2 sequence (O35678 1-303): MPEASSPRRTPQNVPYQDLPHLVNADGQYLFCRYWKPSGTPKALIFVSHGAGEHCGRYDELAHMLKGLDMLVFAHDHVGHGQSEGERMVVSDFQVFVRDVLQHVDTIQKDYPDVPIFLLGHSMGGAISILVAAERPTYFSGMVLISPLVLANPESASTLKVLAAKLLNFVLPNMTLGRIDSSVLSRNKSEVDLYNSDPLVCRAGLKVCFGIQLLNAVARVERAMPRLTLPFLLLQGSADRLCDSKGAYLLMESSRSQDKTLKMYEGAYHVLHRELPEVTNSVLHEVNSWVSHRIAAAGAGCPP

MAGL = target: T3, MAGL (Homo sapiens, UniProt Q99685); assay: In vitro competitive activity-based protein profiling (FP-Rh or HT-01 probe, gel-based); set-up: IC50 MGLL PC3 (Human, μM) / IC50 MGLL PFC (Human, μM): scale not given here; details: for % Inh MGLL PFC (Human, μM) / % Inh MGLL PC3 (Human, μM): concentration not given (μM)
T3 construct: Proteomes (human prefrontal cortex or cell membrane fractions); from tissue
T3 sequence (Q99685 1-303): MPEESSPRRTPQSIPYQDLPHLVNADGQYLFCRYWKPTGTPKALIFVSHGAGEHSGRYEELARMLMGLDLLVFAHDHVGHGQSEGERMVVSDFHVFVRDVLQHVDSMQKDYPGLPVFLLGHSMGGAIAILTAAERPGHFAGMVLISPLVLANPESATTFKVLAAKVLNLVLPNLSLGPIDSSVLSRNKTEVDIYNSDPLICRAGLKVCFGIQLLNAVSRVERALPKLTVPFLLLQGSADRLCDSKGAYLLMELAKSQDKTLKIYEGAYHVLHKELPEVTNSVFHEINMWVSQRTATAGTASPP
Procedure, shortened: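 Human prefrontal cortex or cell membrane proteomes (1.0 mg/mL total protein) were preincubated with varying inhibitor concentrations for 30 min at 37° C. FP-Rh or HT-01 probe (50 μM DMSO stock) was then added for 30 min at room temperature, and samples were quenched in SDS loading buffer and resolved by SDS-PAGE.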

[1] = prefrontal cortex (PFC) proteome

SMILES: CC1(C(=O)O)CCCN(c2cc(CN3CC4(CCN(C(=O)OC(C(F)(F)F)C(F)(F)F)CC4)C3)cc(C(F)(F)F)c2)C1 (stereo not drawn) [Example 114, l-(3-((7-(((1,1,1,3,3,3-Hexafluoropropan-2-yl)oxy)carbonyl)-2,7-diazaspiro[3,5]nonan-2-yl)methyl)-5-(trifluoromethyl)phenyl)-3-methylpiperidine-3-carboxylic acid]
- % Inh ABHD6 Brain (Mouse, μM) (ABHD6): # (# is ≤25%)
- % Inh MGLL Brain (Mouse, μM) (MGLL): ### (### is ≥75%)
- % Inh MGLL PFC (Human, μM) (MAGL; [1]): ### (### is ≥75%)

SMILES: CN(Cc1ccc(C(F)(F)F)cc1N1CCN(CC(=O)O)CC1)C1(C)CCN(C(=O)OC(C(F)(F)F)C(F)(F)F)CC1 [Example 26, 2-(4-(2-(((1-(((1,1,1,3,3,3-Hexafluoropropan-2-yl)oxy)carbonyl)-4-methylpiperidin-4-yl)(methyl)amino)methyl)-5-(trifluoromethyl)phenyl)piperazin-1-yl)acetic acid]
- % Inh ABHD6 Brain (Mouse, μM) (ABHD6): ### (### is ≥75%)
- % Inh MGLL Brain (Mouse, μM) (MGLL): ### (### is ≥75%)
- IC50 MGLL PC3 (Human, μM) (MAGL; PC3 cell proteome): * * *
- % Inh MGLL PC3 (Human, μM) (MAGL; PC3 cell proteome): ### (### is ≥75%)
- IC50 MGLL PFC (Human, μM) (MAGL; [1]): * * *

SMILES: O=C(O)CN1CCC2(CCN(c3cc(C(F)(F)F)ccc3CN3CCCC34CCN(C(=O)OC(C(F)(F)F)C(F)(F)F)CC4)CC2)C1 [Example 153, 2-(8-(2-((8-(((1,1,1,3,3,3-Hexafluoropropan-2-yl)oxy)carbonyl)-1,8-diazaspiro[4.5]decan-1-yl)methyl)-5-(trifluoromethyl)phenyl)-2,8-diazaspiro[4.5]decan-2-yl)acetic acid]
- % Inh ABHD6 Brain (Mouse, μM) (ABHD6): # (# is ≤25%)
- % Inh MGLL Brain (Mouse, μM) (MGLL): ### (### is ≥75%)
- % Inh MGLL PFC (Human, μM) (MAGL; [1]): ### (### is ≥75%)

SMILES: O=C(O)CN1CC2CC1CN2c1cc(C(F)(F)F)ccc1CN1CC2(CCN(C(=O)OC(C(F)(F)F)C(F)(F)F)CC2)C1 (stereo not shown) [Example 127, 2-(5-{2-[(7-{[(1,1,1,3,3,3-Hexafluoropropan-2-yl)oxy]carbonyl}-2,7-diazaspiro[3.5]nonan-2-yl)methyl]-5-(trifluoromethyl)phenyl}-2,5-diazabicyclo[2.2.1]heptan-2-yl)acetic acid]
- % Inh ABHD6 Brain (Mouse, μM) (ABHD6): ### (### is ≥75%)
- % Inh MGLL Brain (Mouse, μM) (MGLL): ### (### is ≥75%)
- % Inh MGLL PFC (Human, μM) (MAGL; [1]): ### (### is ≥75%)

SMILES: N#Cc1ccc(C(=O)N2CCC3(CCN(C(=O)OC(C(F)(F)F)C(F)(F)F)CC3)C2)cc1C(F)(F)F [Example 12, 1,1,1,3,3,3-Hexafluoropropan-2-yl 2-(4-cyano-3-(trifluoromethyl)benzoyl)-2,8-diazaspiro[4.5]decane-8-carboxylate]
- % Inh ABHD6 Brain (Mouse, μM) (ABHD6): ### (### is ≥75%)
- % Inh MGLL Brain (Mouse, μM) (MGLL): ### (### is ≥75%)
- IC50 MGLL PC3 (Human, μM) (MAGL; PC3 cell proteome): * * *
- % Inh MGLL PFC (Human, μM) (MAGL; [1]): ### (### is ≥75%)

SMILES: O=C(O)C1CCN(c2ccc(CN3CCC4(CC3)CCN(C(=O)OC(C(F)(F)F)C(F)(F)F)C4)cc2C(F)(F)F)CC1 [Example 219, l-(4-((2-(((1,1,1,3,3,3-Hexafluoropropan-2-yl)oxy)carbonyl)-2,8-diazaspiro[4.5]decan-8-yl)methyl)-2-(trifluoromethyl)phenyl) piperidine-4-carboxylic acid]
- % Inh ABHD6 Brain (Mouse, μM) (ABHD6): ### (### is ≥75%)
- % Inh MGLL Brain (Mouse, μM) (MGLL): ## (## is between 25 and 75%)
- % Inh MGLL PFC (Human, μM) (MAGL; [1]): ### (### is ≥75%)

SMILES: CC1(C(=O)O)CCCN(c2cc(C(F)(F)F)ccc2CN2CC3(CCN(C(=O)OC(C(F)(F)F)C(F)(F)F)CC3)C2)C1 (stereo not drawn) [Example 112, l-(2-((7-(((1,1,1,3,3,3-Hexafluoropropan-2-yl)oxy)carbonyl)-2,7-diazaspiro[3.5]nonan-2-yl)methyl)-5-(trifluoromethyl)phenyl)-3-methylpiperidine-3-carboxylic acid]
- % Inh ABHD6 Brain (Mouse, μM) (ABHD6): ## (## is between 25 and 75%)
- % Inh MGLL Brain (Mouse, μM) (MGLL): ### (### is ≥75%)
- % Inh MGLL PFC (Human, μM) (MAGL; [1]): ### (### is ≥75%)

SMILES: O=C(OC(C(F)(F)F)C(F)(F)F)N1CCC2(CC1)CCN(C(=O)c1ccc(C(F)(F)F)cc1Cl)C2 [Example 119, 1,1,1,3,3,3-Hexafluoropropan-2-yl 2-(2-chloro-4-(trifluoromethyl)benzoyl)-2,8-diazaspiro[4.5]decane-8-carboxylate]
- % Inh ABHD6 Brain (Mouse, μM) (ABHD6): ### (### is ≥75%)
- % Inh MGLL Brain (Mouse, μM) (MGLL): ### (### is ≥75%)
- % Inh MGLL PFC (Human, μM) (MAGL; [1]): ### (### is ≥75%)

SMILES: O=C(O)[C@@H]1CCCN(c2cc(C(F)(F)F)ccc2CN2CC3(CCN(C(=O)OC(C(F)(F)F)C(F)(F)F)CC3)C2)C1 [Example 107, (R)-1-(2-((7-(((1,1,1,3,3,3-Hexafluoropropan-2-yl)oxy)carbonyl)-2,7-diazaspiro[3,5]nonan-2-yl)methyl)-5-(trifluoromethyl)phenyl) piperidine-3-carboxylic acid]
- % Inh ABHD6 Brain (Mouse, μM) (ABHD6): # (# is ≤25%)
- % Inh MGLL Brain (Mouse, μM) (MGLL): ### (### is ≥75%)
- % Inh MGLL PFC (Human, μM) (MAGL; [1]): ### (### is ≥75%)

SMILES: O=C(OC(C(F)(F)F)C(F)(F)F)N1CCC2(CCCN2Cc2cc(C(F)(F)F)cc(C3(C(=O)O)CCCC3)c2)CC1 [Example 8, 1-(3-((8-(((1,1,1,3,3,3-Hexafluoropropan-2-yl)oxy)carbonyl)-1,8-diazaspiro[4.5]decan-1-yl)methyl)-5-(trifluoromethyl)phenyl)cyclopentane-1-carboxylic acid]
- % Inh ABHD6 Brain (Mouse, μM) (ABHD6): ## (## is between 25 and 75%)
- % Inh MGLL Brain (Mouse, μM) (MGLL): ### (### is ≥75%)
- % Inh MGLL PFC (Human, μM) (MAGL; [1]): ### (### is ≥75%)

SMILES: O=C(O)[C@H]1CCCN1C1CCN(c2cc(C(F)(F)F)ccc2CN2CCCC23CCN(C(=O)OC(C(F)(F)F)C(F)(F)F)CC3)CC1 [Example 160, (1-(2-((8-(((1,1,1,3,3,3-Hexafluoropropan-2-yl)oxy)carbonyl)-1,8-diazaspiro[4.5]decan-l-yl)methyl)-5-(trifluoromethyl)phenyl)piperidin-4-yl)-D-proline]
- % Inh ABHD6 Brain (Mouse, μM) (ABHD6): # (# is ≤25%)
- % Inh MGLL Brain (Mouse, μM) (MGLL): ### (### is ≥75%)
- % Inh MGLL PC3 (Human, μM) (MAGL; PC3 cell proteome): ### (### is ≥75%)
- IC50 (MAGL; PC3 cell proteome, read-out: IC50 MGLL PC3 (Human)): < 100 nM

SMILES: CN(Cc1cc(C(F)(F)F)cc(C2(C(=O)O)CCCC2)c1)C1(C)CCN(C(=O)OC(C(F)(F)F)C(F)(F)F)CC1 [Example 138, l-(3-{[(1-{[(1,1,1,3,3,3-Hexafluoropropan-2-yl)oxy]carbonyl}-4-methylpiperidin-4-yl)(methyl)ainino]methyl}-5-(trifluoromethyl)phenyl)cyclop entane-1-carboxylic acid]
- % Inh ABHD6 Brain (Mouse, μM) (ABHD6): ### (### is ≥75%)
- % Inh MGLL Brain (Mouse, μM) (MGLL): ### (### is ≥75%)
- % Inh MGLL PC3 (Human, μM) (MAGL; PC3 cell proteome): ### (### is ≥75%)

SMILES: CC1(C(=O)O)CCN(c2cc(CN3CC4(CCN(C(=O)OC(C(F)(F)F)C(F)(F)F)CC4)C3)cc(C(F)(F)F)c2)C1 (stereo not drawn) [Example 121, l-(3-((7-(((1,1,1,3,3,3-Hexafluoropropan-2-yl)oxy)carbonyl)-2,7-diazaspiro[3.5]nonan-2-yl)methyl)-5-(trifluoromethyl)phenyl)-3-methylpyrrolidine-3-carboxylic acid]
- % Inh ABHD6 Brain (Mouse, μM) (ABHD6): ### (### is ≥75%)
- % Inh MGLL Brain (Mouse, μM) (MGLL): ### (### is ≥75%)
- % Inh MGLL PFC (Human, μM) (MAGL; [1]): ### (### is ≥75%)

SMILES: O=C(O)C1CCN(c2cc(CN3CCC4(CC3)CCN(C(=O)OC(C(F)(F)F)C(F)(F)F)C4)ccc2C(F)(F)F)CC1 [Example 221, 1-(5-((2-(((1,1,1,3,3,3-Hexafluoropropan-2-yl)oxy)carbonyl)-2.8-diazaspiro[4.5]decan-8-yl)methyl)-2-(trifluoromethyl)phenyl) piperidine-4-carboxylic acid]
- % Inh ABHD6 Brain (Mouse, μM) (ABHD6): ### (### is ≥75%)
- % Inh MGLL Brain (Mouse, μM) (MGLL): ### (### is ≥75%)
- % Inh MGLL PFC (Human, μM) (MAGL; [1]): ### (### is ≥75%)
